Patent US11279730B2, “Oxysterols and methods of use thereof” (Sage Therapeutics, Inc., priority 2016, dated 2022)

Tests used:
[1] = target: T1, GlunN1/GluN2A glutamate receptors (Homo sapiens, UniProt Q05586+Q12879); assay: Whole-cell patch clamp of mammalian cells (Ionworks Barracuda, IWB), NMDA potentiation (PAM), GluN2A; assay type: cell-based; conditions: peak current amplitude; for EC50: 8-point concentration-response, read-out: GluN2A PCA EC50; for Emax: maximal potentiation, read-out: GluN2A PCA Emax (%); for GluN2A PCA IWB Ephys % potentiation at 3 μM: 3 μM test compound, co-application with EC20 L-glutamate and 30 μM glycine
T1 construct: expressed in transfected cells
T1 sequence (Q12879 23-1464, other chains not shown): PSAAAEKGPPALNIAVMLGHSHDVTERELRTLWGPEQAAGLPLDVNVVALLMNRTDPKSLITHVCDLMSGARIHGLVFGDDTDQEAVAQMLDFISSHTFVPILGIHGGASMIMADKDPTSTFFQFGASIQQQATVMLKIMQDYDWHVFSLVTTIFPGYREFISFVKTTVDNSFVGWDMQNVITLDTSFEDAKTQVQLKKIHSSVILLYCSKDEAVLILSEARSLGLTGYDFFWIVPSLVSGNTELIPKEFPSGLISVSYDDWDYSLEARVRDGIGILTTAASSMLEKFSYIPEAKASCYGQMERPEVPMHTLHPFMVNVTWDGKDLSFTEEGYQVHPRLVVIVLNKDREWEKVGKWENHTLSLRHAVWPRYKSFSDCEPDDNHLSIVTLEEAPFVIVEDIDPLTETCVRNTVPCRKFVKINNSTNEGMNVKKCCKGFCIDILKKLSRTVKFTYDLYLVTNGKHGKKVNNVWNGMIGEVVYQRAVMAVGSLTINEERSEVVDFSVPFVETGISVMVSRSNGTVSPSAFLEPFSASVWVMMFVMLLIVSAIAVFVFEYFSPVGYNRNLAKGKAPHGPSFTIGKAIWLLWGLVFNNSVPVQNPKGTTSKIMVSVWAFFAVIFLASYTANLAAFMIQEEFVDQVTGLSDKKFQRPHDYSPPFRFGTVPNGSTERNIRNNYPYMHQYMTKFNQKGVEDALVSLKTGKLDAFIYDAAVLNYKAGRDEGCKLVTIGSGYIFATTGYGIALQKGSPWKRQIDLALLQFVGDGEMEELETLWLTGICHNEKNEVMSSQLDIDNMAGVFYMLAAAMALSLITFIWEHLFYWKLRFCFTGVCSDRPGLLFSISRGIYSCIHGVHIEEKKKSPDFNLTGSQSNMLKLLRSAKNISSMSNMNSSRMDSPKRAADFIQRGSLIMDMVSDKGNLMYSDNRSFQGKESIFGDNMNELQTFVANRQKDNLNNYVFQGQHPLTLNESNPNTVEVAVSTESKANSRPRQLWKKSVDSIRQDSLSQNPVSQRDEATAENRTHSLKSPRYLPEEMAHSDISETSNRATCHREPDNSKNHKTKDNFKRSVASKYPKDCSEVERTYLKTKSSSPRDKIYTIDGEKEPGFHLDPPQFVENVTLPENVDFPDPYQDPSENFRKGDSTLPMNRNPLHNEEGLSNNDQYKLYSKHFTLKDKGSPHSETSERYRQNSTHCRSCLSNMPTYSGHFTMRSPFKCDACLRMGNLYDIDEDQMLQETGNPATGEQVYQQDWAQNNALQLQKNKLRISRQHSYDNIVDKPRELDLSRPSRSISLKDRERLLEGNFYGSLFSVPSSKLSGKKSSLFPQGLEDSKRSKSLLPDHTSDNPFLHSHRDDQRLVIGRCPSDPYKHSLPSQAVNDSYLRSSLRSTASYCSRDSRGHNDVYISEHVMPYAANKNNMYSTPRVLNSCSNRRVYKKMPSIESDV
Protocol: (§1) NMDA potentiation in mammalian cells which expressed NMDA receptors was assessed using the whole cell patch clamp to determine the PAM activity of compounds as described below. An automatic patch-clamp system can be used determine the […] activity of compounds as described below.
(§2) The whole-cell patch-clamp technique was used to investigate the effects of positive allosteric modulating activity of test compounds on GlunN1/GluN2A and GluN2B glutamate receptors expressed in mammalian cells.
HEK293 cells were transformed with adenovirus 5 DNA and transfected with cDNA encoding the human GRIN1/GRIN2A genes. Stable transfectants were selected using G418 and Zeocin-resistance genes incorporated into the expression plasmid and selection pressure maintained with G418 and Zeocin in the medium. Cells were cultured in Dulbecco's Modified Eagle Medium/Nutrient Mixture (D-MEM/F-12) supplemented with 10% fetal bovine serum, 100 μg/ml penicillin G sodium, 100 μg/ml streptomycin sulphate, 100 μg/ml Zeocin, 5 μg/ml blasticidin and 500 μg/ml G418.
(§3) Test article effects were evaluated in 8-point concentration-response format (4 replicate wells/concentration). All test and control solutions contained 0.3% DMSO and 0.01% Kolliphor® EL (C5135, Sigma). The test article formulations were loaded in a 384-well compound plate using an automated liquid handling system (SciClone ALH3000, Caliper LifeSciences). The measurements were performed using Ion Works Barracuda platform following this procedure:
(§4) • a) Intracellular solution (mM): 50 mM CsCl, 90 mM CsF, 2 mM MgCl2, 5 mM EGTA, 10 mM HEPES. Adjust to pH 7.2 with CsOH. • b) Extracellular solution, HB-PS (composition in mM): NaCl, 137; KCl, 1.0; CaCl2, 5; HEPES, 10; Glucose, 10; pH adjusted to 7.4 with NaOH (refrigerated until use). • c) Holding potential: −70 mV, potential during agonist/PAM application: −40 mV. Recording Procedure: • a) Extracellular buffer will be loaded into the PPC plate wells (11 μL per well). Cell suspension will be pipetted into the wells (9 μL per well) of the PPC planar electrode. • b) Whole-cell recording configuration will be established via patch perforation with membrane currents recorded by on-board patch clamp amplifiers. • c) Two recordings (scans) will be performed. First, during pre-application of test article alone (duration of pre-application—5 min) and second, during test articles and agonist (EC20 L-glutamate and 30 μM glycine) co-application to detect positive modulatory effects of the test article.
(§5) Test Article Administration: The first pre-application will consist of the addition of 20 μL of 2× concentrated test article solution and, second, of 20 μL of 1× concentrated test article and agonist at 10 μL/s (2 second total application time).
(§6) Potentiating effect of positive allosteric modulators (PAM) on the channel will be calculated as % activation=(IPAM/IEC10-30)×100%−100% where IPAM will be the L-glutamate EC10-30-elicited current in presence of various concentrations of test articles and IEC20 will be the mean current elicited with L-glutamate EC20. PAM concentration-response data will be fitted to an equation of the form: % Activation=% L-glutamate EC20+{(% MAX−% L-glutamate EC20)/[1+([Test]/EC50)^N]} where [Test] will be the concentration of PAM (test article), EC50 will be the concentration of PAM producing half-maximal activation, N will be the Hill coefficient, % L-glutamate EC20 will be the percentage of the current Elicited with L-glutamate EC20, % MAX is the percentage of the current activated with the highest dose of PAM co-admitted with L-glutamate EC20 and % Activation will be the percentage of the current elicited with L-glutamate EC10-30 at each PAM concentration.
(§7) The maximal amplitude of the evoked currents are measured and defined as Peak Current Amplitude (PCA).

[2] = target: T2, GluN2B glutamate receptors (Homo sapiens, UniProt Q05586+Q13224); assay: Whole-cell patch clamp of mammalian cells (Ionworks Barracuda, IWB), NMDA potentiation (PAM), GluN2B; assay type: cell-based; conditions: peak current amplitude; for EC50: 8-point concentration-response, read-out: GluN2B PCA EC50; for Emax: maximal potentiation, read-out: GluN2B PCA Emax (%); for GluN2B PCA IWB Ephys % potentiation at 3 μM: 3 μM test compound, co-application with EC20 L-glutamate and 30 μM glycine
T2 construct: expressed in transfected cells
T2 sequence (Q13224 27-1484, other chains not shown): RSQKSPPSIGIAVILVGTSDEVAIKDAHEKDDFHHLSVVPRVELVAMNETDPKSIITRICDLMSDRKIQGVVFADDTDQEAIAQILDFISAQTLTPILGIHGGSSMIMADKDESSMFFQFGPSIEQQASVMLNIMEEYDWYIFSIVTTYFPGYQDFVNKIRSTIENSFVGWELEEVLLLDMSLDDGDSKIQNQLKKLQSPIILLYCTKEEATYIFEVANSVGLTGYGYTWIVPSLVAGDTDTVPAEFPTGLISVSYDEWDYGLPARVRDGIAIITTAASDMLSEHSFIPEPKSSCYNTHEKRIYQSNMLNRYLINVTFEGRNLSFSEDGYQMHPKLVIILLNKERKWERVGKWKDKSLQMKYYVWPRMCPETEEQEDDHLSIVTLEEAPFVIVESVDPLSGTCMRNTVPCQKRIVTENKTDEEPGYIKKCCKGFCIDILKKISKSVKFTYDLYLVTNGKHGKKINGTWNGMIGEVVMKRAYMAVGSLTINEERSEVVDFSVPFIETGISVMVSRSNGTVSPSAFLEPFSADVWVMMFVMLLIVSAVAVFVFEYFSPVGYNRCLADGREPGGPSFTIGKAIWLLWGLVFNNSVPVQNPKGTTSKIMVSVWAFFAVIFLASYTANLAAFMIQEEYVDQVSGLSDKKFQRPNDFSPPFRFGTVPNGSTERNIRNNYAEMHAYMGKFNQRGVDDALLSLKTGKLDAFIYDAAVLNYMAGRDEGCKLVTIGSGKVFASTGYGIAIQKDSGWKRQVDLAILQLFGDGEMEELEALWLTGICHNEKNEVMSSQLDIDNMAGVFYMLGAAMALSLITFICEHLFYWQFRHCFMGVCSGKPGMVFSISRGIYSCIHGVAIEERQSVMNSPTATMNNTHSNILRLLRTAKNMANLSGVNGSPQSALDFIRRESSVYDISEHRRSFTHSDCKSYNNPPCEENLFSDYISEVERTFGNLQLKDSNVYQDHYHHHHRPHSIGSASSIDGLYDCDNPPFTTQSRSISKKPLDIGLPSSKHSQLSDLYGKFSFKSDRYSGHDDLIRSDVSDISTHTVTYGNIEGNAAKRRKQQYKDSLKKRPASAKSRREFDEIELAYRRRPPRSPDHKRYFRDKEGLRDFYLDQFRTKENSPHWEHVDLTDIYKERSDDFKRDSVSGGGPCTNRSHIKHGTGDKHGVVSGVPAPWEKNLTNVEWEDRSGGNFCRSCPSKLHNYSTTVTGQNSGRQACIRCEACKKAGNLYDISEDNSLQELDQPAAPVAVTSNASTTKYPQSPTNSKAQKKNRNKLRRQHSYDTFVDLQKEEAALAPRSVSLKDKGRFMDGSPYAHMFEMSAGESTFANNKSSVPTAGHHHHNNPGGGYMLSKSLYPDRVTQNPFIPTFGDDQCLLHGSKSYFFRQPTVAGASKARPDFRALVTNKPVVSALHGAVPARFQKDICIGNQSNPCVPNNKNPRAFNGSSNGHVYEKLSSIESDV
Protocol: as §1, §2, §3, §4, §5, §6, §7

SMILES	EC50 [1] [nM]	Emax [1] [%]	EC50 [2] [nM]	Emax [2] [%]	GluN2A PCA IWB Ephys % potentiation at 3 μM [1]	GluN2B PCA IWB Ephys % potentiation at 3 μM [2]
CC[C@]1(O)CC[C@@]2(C)C(=CC[C@H]3[C@@H]4CC[C@H]([C@H](C)CCC(C)(C)O)[C@@]4(C)CC(=O)[C@@H]32)C1 [Compound 5]	100 to 500	100 to 500	100 to 500	100 to 500	–	–
CC[C@]1(O)CC[C@@]2(C)C(=CC[C@H]3[C@@H]4CC[C@H]([C@H](C)CC[C@H](O)C(C)(C)C)[C@@]4(C)CC(=O)[C@@H]32)C1 [Compound 9]	1 to 100	> 500	1 to 100	100 to 500	–	–
CC[C@]1(O)CC[C@@]2(C)C(=CC[C@H]3[C@@H]4CC[C@H]([C@H](C)CC[C@@H](O)C(C)(C)C)[C@@]4(C)CC(=O)[C@@H]32)C1 [Compound 10]	1 to 100	> 500	1 to 100	100 to 500	–	–
C[C@H](CCC(C)(C)O)[C@H]1CC[C@H]2[C@@H]3CC=C4C[C@@H](O)CC[C@]4(C)[C@H]3[C@@H](O)C[C@]12C [Compound 3]	≥ 10000	< 100	500 to 1000	100 to 500	A (“A” indicates % potentiation up to 100%)	B (“B” indicates potentiation of >100%)
C[C@H](CCC(C)(C)O)[C@H]1CC[C@H]2[C@@H]3CC=C4C[C@@](C)(O)CC[C@]4(C)[C@H]3C(C)(O)C[C@]12C (some centres unmarked) [Compound 11]	500 to 1000	100 to 500	1000 to 10000	100 to 500	B (“B” indicates potentiation of >100%)	B (“B” indicates potentiation of >100%)
C[C@H](CCC(C)(C)O)[C@H]1CC[C@H]2[C@@H]3CC[C@H]4C[C@@H](O)CC[C@]4(C)[C@H]3C(=O)C[C@]12C [Compound 2]	1000 to 10000	< 100	500 to 1000	< 100	A (“A” indicates % potentiation up to 100%)	A (“A” indicates % potentiation up to 100%)
CC[C@]1(O)CC[C@@]2(C)C(=CC[C@H]3[C@@H]4CC[C@H]([C@H](C)CC[C@@H](O)C(C)C)[C@@]4(C)CC(=O)[C@@H]32)C1 [Compound 6]	1 to 100	100 to 500	1 to 100	100 to 500	–	–
C[C@H](CCC(C)(C)O)[C@H]1CC[C@H]2[C@@H]3CC=C4C[C@@H](O)CC[C@]4(C)[C@H]3C(=O)C[C@]12C [Compound 4]	100 to 500	100 to 500	100 to 500	100 to 500	B (“B” indicates potentiation of >100%)	B (“B” indicates potentiation of >100%)
C[C@H](CCC(C)(C)O)[C@H]1CC[C@H]2[C@@H]3CC[C@H]4C[C@@](C)(O)CC[C@]4(C)[C@H]3C(=O)C[C@]12C [Compound 1]	500 to 1000	100 to 500	500 to 1000	100 to 500	B (“B” indicates potentiation of >100%)	B (“B” indicates potentiation of >100%)
CC[C@]1(O)CC[C@@]2(C)C(=CC[C@H]3[C@@H]4CC[C@H]([C@H](C)CC[C@H](O)C(C)C)[C@@]4(C)CC(=O)[C@@H]32)C1 [Compound 7]	1 to 100	100 to 500	1 to 100	100 to 500	–	–
